Source: paper PMC8074792, “An ω-3, but Not an ω-6 Polyunsaturated Fatty Acid Decreases Membrane Dipole Potential and Stimulates Endo-Lysosomal Escape of Penetratin” (Frontiers in Cell and Developmental Biology, 2021)

Columns and labels:
JY cells [1] = assay: Membrane dipole potential, di-8-ANEPPS excitation ratio, spectrofluorometry; type: cell-based, human; settings: for Rexc, di-8-ANEPPS (excitation ratio 410-440 nm / 490-520 nm, positively correlates with DP): agent 20-200 μM, 10 min, 0.05% Pluronic F-127, measured at 37°C, mean of 5 experiments
Method: (§1) The human acute monocytic leukemia-derived cell line THP-1 and the human Epstein-Barr virus (EBV) transformed lymphoblastoid cell line JY were obtained from the American Type Culture Collection (Manassas, VA, United States) and cultivated according to their specifications. […] As controls, cells were treated with the corresponding amounts of native MβCD complexes not containing sterols. To study the effects of fatty acids, cells were incubated for 48 h in medium supplemented with saturated stearic acid (SA, Sigma Aldrich), ω-3 polyunsaturated α-linolenic acid (ALA, Sigma Aldrich) or ω-6 polyunsaturated γ-linolenic acid (GLA, Sigma Aldrich) at various concentrations ranging from 12.5 to 50 μM. […] After washing, cells were kept on ice and samples were subsequently warmed to 37°C right before measurements carried out with a Fluorolog-3 spectrofluorometer (Horiba Jobin Yvon, Edison, NJ, United States). During measurements, the cuvette holder was kept at 37°C using a circulating water bath. Excitation spectra were recorded between 380 and 550 nm with the detected emission wavelength set to 660 nm in order to minimize effects of possible changes in membrane fluidity ([Clarke and Kane, 1997]). The ratio of fluorescence intensities integrated between excitation wavelengths 410–440 nm and 490–520 nm was calculated for each sample, which positively correlates with the magnitude of DP ([Clarke and Kane, 1997]; [Kovacs et al., 2017]; [Batta et al., 2020]).

THP-1 cells [2] = assay: as above; type: cell-based, human; settings: for Rexc, di-8-ANEPPS (excitation ratio 410-440 nm / 490-520 nm, positively correlates with DP): agent 20-200 μM, 10 min, 0.05% Pluronic F-127, measured at 37°C, mean of 5 experiments
Method: as §1

JY cells [3] = assay: Membrane fluidity, TMA-DPH fluorescence anisotropy; type: cell-based, human; settings: 200 μM sterol 1 h or 50 μM fatty acid 48 h, 37°C, n = 6, vs control
Method: (§2) 4′-(trimethylammonio)-diphenylhexatriene (TMA-DPH) was purchased from Sigma-Aldrich, dissolved in tetrahydrofuran and used for determination of membrane fluidity as described previously ([Batta et al., 2018]). […] Fluorescence intensities were measured without washing using a Fluorolog-3 spectrofluorometer (Horiba Jobin Yvon, Edison, NJ, United States) with the temperature of the cuvette holder adjusted to 37°C by a circulating water bath. The fluorescence anisotropy (r) of TMA-DPH was determined in the L-format after excitation at 352 nm and measurement of fluorescence intensities at 430 nm according to the formula: […]

THP-1 cells [4] = assay: Membrane fluidity, TMA-DPH fluorescence anisotropy; type: cell-based, human; settings: 200 μM sterol 1 h or 50 μM fatty acid 48 h, 37°C, n = 6, vs control
Method: as §2

JY cells [5] = assay: Membrane hydration, PY3174 generalized polarization, confocal microscopy; type: cell-based, human; settings: 200 μM sterol 1 h or 50 μM fatty acid 48 h, efficacy order 6KC > cholesterol ≥ 7DHC, effects of 7DHC and SA not statistically significant
Method: (§3) For these measurements, cells were labeled with 10 μM PY3174 for 20 min at room temperature. […] During processing, segmentation of images into membrane and non-membrane pixels was carried out with the manually seeded watershed algorithm using a custom-written MATLAB program as described previously ([Kovacs et al., 2017]). The average value of general polarization correlating with the degree of membrane compactness ([[…] et al., 2013]) was calculated from the data of cell membrane pixels after background subtraction using […]

THP-1 cells [6] = assay: as above; type: cell-based, human; settings: 200 μM sterol 1 h or 50 μM fatty acid 48 h, efficacy order 6KC > cholesterol ≥ 7DHC, all statistically significant
Method: as §3

JY cells [7] = assay: Membrane dipole potential, F66 emission ratio, flow cytometry; type: cell-based, human; settings: n = 5; for Rem, F66 (emission ratio N*/T*, 470-490 nm / 564-606 nm, negatively correlates with DP): agent 20-200 μM, 10 min, 0.05% Pluronic F-127, at least 20,000 living cells per sample
Method: (§4) The human acute monocytic leukemia-derived cell line THP-1 and the human Epstein-Barr virus (EBV) transformed lymphoblastoid cell line JY were obtained from the American Type Culture Collection (Manassas, VA, United States) and cultivated according to their specifications. […] As controls, cells were treated with the corresponding amounts of native MβCD complexes not containing sterols. To study the effects of fatty acids, cells were incubated for 48 h in medium supplemented with saturated stearic acid (SA, Sigma Aldrich), ω-3 polyunsaturated α-linolenic acid (ALA, Sigma Aldrich) or ω-6 polyunsaturated γ-linolenic acid (GLA, Sigma Aldrich) at various concentrations ranging from 12.5 to 50 μM. […] After washing, the fluorescence intensities of cells were determined with a FACS Aria III flow cytometer (Becton Dickinson, Mountain View, CA, United States) at 37°C. […] Data analysis was carried out in FCS Express (De Novo Software, Los Angeles, CA, United States). The ratio of emitted intensities in the two wavelength ranges (N^∗/T^∗) was determined for each cell and the average value was calculated for each sample from the data of living cells gated on FSC-SSC dot plots. The value of N^∗/T^∗ ratio negatively correlates with the magnitude of DP ([Kovacs et al., 2017]).

THP-1 cells [8] = assay: as above; type: cell-based, human; settings: n = 5; for Rem, F66 (emission ratio N*/T*, 470-490 nm / 564-606 nm, negatively correlates with DP): agent 20-200 μM, 10 min, 0.05% Pluronic F-127, at least 20,000 living cells per sample
Method: as §4

JY cells [9] = assay: Penetratin uptake and endo-lysosomal escape, time-correlated flow cytometry; type: cell-based, human; settings: 37°C
Description: (§5) Penetratin ([…]-amide, molecular weight 2245.75 g/mol) was synthesized manually on TentaGel R RAM (Rapp Polymere, Tübingen, Germany), a low crosslinked polystyrene PEG copolymer resin by the solid-phase method of Merrifield with standard Fmoc chemistry, as described in detail in our recent study ([Batta et al., 2020]). After coupling the last arginine, one half of the penetratin was reacted with AFDye532 N-hydroxysuccinimide ester (molecular weight 723.77 g/mol, Fluoroprobes, Scottsdale, AZ, United States), while the other half with 5(6)-carboxynaphthofluorescein N-succinimidyl ester (molecular weight 573.51 g/mol, Darmstadt, Germany). Completion of the coupling was assessed by Kaiser test, which was followed by deprotection and release from the resin. After filtration and precipitation with cold diethyl ether, the crude products were purified by preparative reversed-phase HPLC (JASCO, Victoria, BC, Canada) on a C18 column and lyophilized. The purity of the products (>95%) was assessed by reversed-phase HPLC (JASCO) equipped with an analytical C18 column. […] These values well correlated with the predicted masses of the labeled peptides (2983.59 and 2833.33, respectively).
(§6) Total cellular penetratin uptake and endo-lysosomal escape was determined as described previously ([Batta et al., 2020]). Briefly, control THP-1 or JY cells and those treated with 50 μM ALA, GLA or SA for 48 h at 37°C were incubated in the continuous presence of 5 μM AFDye532-penetratin, 5 μM NF-penetratin and 0.25 μg/ml DAPI at 37°C in the thermostated sample holder of a FACS Aria III flow cytometer. The fluorescence intensity of DAPI was measured using an excitation at 405 nm and an emission filter 450/20 nm. AFDye532 and NF were excited at 488 and 561 nm, respectively, and their fluorescence was determined using emission filters 530/30 and 670/14 nm, respectively. Measurements started immediately after addition of DAPI and penetratin and continued for 20 min at 37°C. Experimental data were analyzed first in FCS Express. Time-correlated fluorescence intensity values of DAPI-negative living cells were exported after spectral compensation and the moving averages of samples were calculated with a window size of 10 s. […] During analysis, fluorescence intensity values were first normalized to the average intensity in the first time window, which was followed by calculation of the fluorescence ratio from the normalized values.

THP-1 cells [10] = assay: as above; type: cell-based, human; settings: 37°C
Description: as §5, §6

[11] = parameters: method as in Batta et al., 2020; settings: lowering DP with the agent; ref Batta et al., 2020; cited from earlier work
Description: One of the most widely studied cellular functions influenced by the magnitude of DP is the cellular binding and uptake of certain substances including drugs ([Asawakarn et al., 2001]), β-amyloid ([Hertel et al., 1997]) and other peptides ([Cladera and O’Shea, 1998]; [Zhan and Lazaridis, 2012]). […] Although cell-penetrating peptides are promising therapeutic tools for de ...

[12] = sterol-MβCD complex, 60 min, room temperature, at the maximal applied concentration of 200 μM, n = 5, statistically significant
[13] = fatty acid 12.5-50 μM for 48 h, result at maximal 50 μM, n = 5
[14] = 50 μM fatty acid 48 h, 5 μM AFDye532- and 5 μM NF-penetratin, compared at 900 s, n = 5
[15] = 50 μM fatty acid 48 h, then 50 or 200 μM cholesterol 1 h
[16] = 5 μM AFDye532-penetratin + 5 μM NF-penetratin, flow cytometry, living cells
[17] = 5 μM AFDye532-penetratin + 5 μM NF-penetratin, continuous presence, flow cytometry, DAPI-negative living cells
[18] = 5 μM of each labeled penetratin, decline followed by a continuous gradual increase

| Compound | Rexc, di-8-ANEPPS (excitation ratio 410-440 nm / 490-520 nm, positively correlates with DP) (JY cells [1]; room temperature) | Rexc, di-8-ANEPPS (JY cells [1]; [12]) | Rexc, di-8-ANEPPS (excitation ratio 410-440 nm / 490-520 nm, positively correlates with DP) (THP-1 cells [2]; room temperature) | Rexc, di-8-ANEPPS (THP-1 cells [2]; [12]) | TMA-DPH fluorescence anisotropy (inversely correlates with membrane fluidity) (JY cells [3]) | TMA-DPH fluorescence anisotropy (inversely correlates with membrane fluidity) (THP-1 cells [4]) | PY3174 generalized polarization in the cell membrane (inversely correlates with membrane hydration) (JY cells [5]) | PY3174 generalized polarization in the cell membrane (inversely correlates with membrane hydration) (THP-1 cells [6]) | Rem, F66 (emission ratio N*/T*, 470-490 nm / 564-606 nm, negatively correlates with DP) (JY cells [7]) | Rem, F66 (emission ratio N*/T*, 470-490 nm / 564-606 nm, negatively correlates with DP) (THP-1 cells [8]) | further results |
| --- | --- | --- | --- | --- | --- | --- | --- | --- | --- | --- | --- |
| CC(C)CCC[C@@H](C)[C@H]1CC[C@H]2[C@@H]3CC(=O)[C@H]4C[C@@H](O)CC[C@]4(C)[C@H]3CC[C@]12C [6KC, 3β-hydroxy-5α-cholestan-6-one] | dose-dependently increased | robustly elevated | dose-dependently increased | robustly elevated | did not reach statistical significance | did not reach statistical significance | shifted toward the positive direction | shifted toward the positive direction | dose-dependent decreases | dose-dependent decreases |  |
| CC(C)CCC[C@@H](C)[C@H]1CC[C@H]2C3=CC=C4C[C@@H](O)CC[C@]4(C)[C@H]3CC[C@]12C [7DHC, 7-dehydrocholesterol] |  | slightly raised |  | slightly raised | significantly elevated | significantly elevated | shifted toward the positive direction | shifted toward the positive direction |  |  |  |
| CCCCCCCCCCCCCCCCCC(=O)O [SA, stearic acid] |  |  |  |  | did not reach statistical significance | did not reach statistical significance | increased the generalized polarization, albeit to a miniscule extent | increased the generalized polarization, albeit to a miniscule extent |  |  | Rexc, di-8-ANEPPS (JY cells [1]; [13]): slightly higher; Rexc, di-8-ANEPPS (THP-1 cells [2]; [13]): slightly higher; ratio of NF and AFDye532 intensities (endo-lysosomal escape of penetratin) vs controls (JY cells [9]; [14]): no significant changes; ratio of NF and AFDye532 intensities (endo-lysosomal escape of penetratin) vs controls (THP-1 cells [10]; [14]): no significant changes; effect of fatty acid pretreatment on cholesterol-induced DP elevation (Rem, F66) (JY cells [7]; [15]): a tendency to augment the cholesterol-induced DP changes; effect of fatty acid pretreatment on cholesterol-induced DP elevation (Rem, F66) (THP-1 cells [8]; [15]): a tendency to augment the cholesterol-induced DP changes; Rem, F66 (THP-1 cells [8]; fatty acid 12.5-50 μM for 48 h): opposite changes were observed in response to SA or GLA with the former not reaching the level of significance |
| CC(C)CCC[C@@H](C)[C@H]1CC[C@H]2[C@@H]3CC=C4C[C@@H](O)CC[C@]4(C)[C@H]3CC[C@]12C [cholesterol] |  | moderately increased |  | moderately increased | significantly elevated | significantly elevated | shifted toward the positive direction | shifted toward the positive direction |  |  |  |
| O=C(CCc1ccc(O)cc1)c1c(O)cc(O)cc1O [phloretin, 3-(4-hydroxyphenyl)-1-(2,4,6-trihydroxyphenyl) propan-1-one] | dose-dependently decreased |  | dose-dependently decreased |  |  |  |  |  | increased Rem, F66 values implying lower magnitudes of DP, this change did not reach the level of significance in one of the cell lines | increased Rem, F66 values implying lower magnitudes of DP, this change did not reach the level of significance in one of the cell lines | cellular uptake and endo-lysosomal escape of penetratin [11]: increased |
| RQIKIWFQNRRMKWKK-amide [penetratin] |  |  |  |  |  |  |  |  |  |  | duration of fast increase of NF signal (endo-lysosomal escape of penetratin), followed by slower continuous rise (JY cells [9]; [16]): 180 to 240 s; time of saturation of AFDye532 signal (total cellular penetratin concentration) (JY cells [9]; [17]): 120 to 180 s; time course of ratio of NF and AFDye532 (fraction of penetratin in the cytosol) (JY cells [9]; [18]): initially declined; duration of fast increase of NF signal (endo-lysosomal escape of penetratin), followed by slower continuous rise (THP-1 cells [10]; [16]): 180 to 240 s; time of saturation of AFDye532 signal (total cellular penetratin concentration) (THP-1 cells [10]; [17]): 120 to 180 s; time course of ratio of NF and AFDye532 (fraction of penetratin in the cytosol) (THP-1 cells [10]; [18]): initially declined |
